{"source": "patent US20120282258A1", "about": "“CRLF2 IN PRECURSOR B-CELL ACUTE LYMPHOBLASTIC LEUKEMIA” (DANA-FARBER CANCER INSTITUTE, INC., priority 2009, published 2012)", "key": {"[1]": {"test_system": "STAT5, ERK or JAK2 phosphorylation in cells with mutant CRLF2 or JAK2 proteins", "test": "Phosphorylation of STAT5, ERK and JAK2 in BaF3 cells treated with TSLP", "assay_type": "cell-based, murine", "description": "In BaF3 cells, both CRLF2 Phe232Cys and CRLF2/mutant JAK2 promoted the phosphorylation of the JAK targets STAT5 and ERK.\n(§1) As expected, TSLP had no effect on STAT5, ERK or JAK2 phosphorylation in cells with mutant CRLF2 or JAK2 proteins."}, "[2]": {"test_system": "phospho-JAK2 in CRLF2/IL-7R cells", "test": "Phospho-JAK2 in CRLF2/IL-7R cells treated with TSLP", "assay_type": "cell-based, murine", "description": "as §1"}, "[3]": {"test_system": "BaF3 cells that express CRLF2/mutant JAK2", "test": "In vitro cell growth in the absence of IL-3 with TSLP added", "assay_type": "cell-based, murine", "description": "(§2) FIG. 3 is a group of four graphs depicting in vitro cell growth of UT7 cells and BaF cells that stably express CRLF2 and/or JAK2 alleles grown in the absence of GM-CSF (UT7) or IL-3 (BaF3). For the bottom right panel, TSLP 1 ng/mL was added at day 0, as indicated. Growth is the number of viable cells relative to the number of cells initially seeded on day 0. Error bars represent one standard deviation.\n(§3) Unlike cells that express CRLF2/IL-7R, the addition of TSLP had no effect on the growth of BaF3 cells expressing CRLF2 Phe232Cys (FIG. 3)."}, "[4]": {"test_system": "BaF3 cells that express CRLF2 Phe232Cys/IL-7R", "test": "In vitro cell growth in the absence of IL-3 with TSLP added", "assay_type": "cell-based, murine", "conditions": "BaF3 CRLF2 Phe232Cys/IL-7R, TSLP 1 ng/mL added at day 0, FIG. 3", "description": "as §2, §3"}, "[5]": {"test_system": "BaF3 cells expressing CRLF2 Phe232Cys", "test": "In vitro cell growth in the absence of IL-3 with TSLP added", "assay_type": "cell-based, murine", "conditions": "TSLP 1 ng/mL added at day 0, FIG. 3", "description": "as §2, §3"}, "[6]": {"test_system": "BaF3-CRLF2 Phe232Cys cells", "test": "Toxicity of agents with activity against PKC family kinases in BaF3 cells", "assay_type": "cell-based, murine"}, "[7]": {"test_system": "BaF3 cells expressing CRLF2 Phe232Cys", "test": "Viability of BaF3 cells exposed to JAK inhibitor-1 for 72 hours, relative to vehicle", "assay_type": "cell-based, murine", "conditions": "no cytokines, FIG. 5", "description": "(§4) FIG. 5 is a graph depicting signal activation and dependence on JAK signaling. BaF3 cells that stably express BCR/ABL, CRLF2 and/or JAK2 were grown in the absence of cytokines. +IL3 indicates unmodified BaF3 cells grown in the presence of 500 pg/mL IL-3. Data represents the ratio of viable cells exposed to JAK inhibitor-1 (Calbiochem) at varying concentrations for 72 hours, compared to the same cell line exposed to vehicle. Error bars indicate one standard deviation.\nas §1"}, "[8]": {"test_system": "BaF3 cells expressing CRLF2/mutant JAK2", "test": "Viability of BaF3 cells exposed to JAK inhibitor-1 for 72 hours, relative to vehicle", "assay_type": "cell-based, murine", "conditions": "BaF3 CRLF2/mutant JAK2, no cytokines, FIG. 5", "description": "as §4, §1"}, "[9]": {"target": "the molecule itself", "test": "immunoblot of BaF3 cells under reducing and non-reducing conditions (homodimer)", "description": "(§5) The CRLF2 Phe232 residue is near the junction of the extracellular and transmembrane domains. Mutations that introduce cysteine residues in this region of other receptor tyrosine kinases, such as RET, can activate signal transduction through intermolecular disulfide-bonded dimers. To confirm that CRLF2 Phe232Cys promotes constitutive dimerization, immunoblots in BaF3 cells expressing wild-type CRLF2 or CRLF2 Phe232Cys were performed under both reducing and non-reducing conditions. Under non-reducing conditions, the molecular weight of the CRLF2 Phe232Cys band, but not the wild-type band, was doubled, consistent with constitutive dimerization through the cysteine residues."}, "[10]": {"target": "the molecule itself", "test": "immunoblot of BaF3 cells under reducing and non-reducing conditions (self-association)", "description": "as §5"}}}
{"molecule": "TSLP: thymic stromal lymphopoietin, cytokine ligand of the CRLF2/IL-7R heterodimer", "values": [{"measurement": "effect of TSLP on STAT5, ERK or JAK2 phosphorylation", "setting": "[1]", "result": "no effect"}, {"measurement": "phospho-JAK2 after TSLP treatment", "setting": "[2]", "result": "no detectable phospho-JAK2"}, {"measurement": "effect of TSLP on cell growth", "setting": "[3]", "result": "did not promote the growth"}, {"measurement": "effect of TSLP on cell growth", "setting": "[4]", "result": "promoted the growth"}, {"measurement": "effect of TSLP on cell growth", "setting": "[5]", "result": "no effect"}]}
{"molecule": "COC(=O)[C@@]1(O)C[C@H]2O[C@]1(C)n1c3ccccc3c3c4c(c5c6ccccc6n2c5c31)C(=O)NC4", "note": "[k252a]", "values": [{"measurement": "toxicity in BaF3-CRLF2 Phe232Cys cells as compared to BaF3 cells expressing wild-type CRLF2", "setting": "[6]", "result": "selective toxicity"}]}
{"molecule": "CN[C@@H]1C[C@H]2O[C@@](C)([C@@H]1OC)n1c3ccccc3c3c4c(c5c6ccccc6n2c5c31)C(=O)N[C@@H]4O", "note": "[UCN-01]", "values": [{"measurement": "toxicity in BaF3-CRLF2 Phe232Cys cells as compared to BaF3 cells expressing wild-type CRLF2", "setting": "[6]", "result": "selective toxicity"}]}
{"molecule": "CO[C@@H]1[C@H](N(C)C(=O)c2ccccc2)C[C@H]2O[C@]1(C)n1c3ccccc3c3c4c(c5c6ccccc6n2c5c31)C(=O)NC4", "note": "[PKC412]", "values": [{"measurement": "toxicity in BaF3-CRLF2 Phe232Cys cells as compared to BaF3 cells expressing wild-type CRLF2", "setting": "[6]", "result": "selective toxicity"}]}
{"molecule": "CC(C)(C)c1nc2c3cc[nH]c(=O)c3c3cc(F)ccc3c2[nH]1", "note": "[small molecule JAK inhibitor]", "values": [{"measurement": "sensitivity of cells to JAK inhibitor (ratio of viable cells versus vehicle)", "setting": "[7]", "result": "highly sensitive"}, {"measurement": "sensitivity of cells to JAK inhibitor (ratio of viable cells versus vehicle)", "setting": "[8]", "result": "highly sensitive"}]}
{"molecule": "Cn1c2ccccc2c2c3c(c4c5ccccc5n(CCC#N)c4c21)CNC3=O", "note": "[Go6976]", "values": [{"measurement": "toxicity in BaF3-CRLF2 Phe232Cys cells as compared to BaF3 cells expressing wild-type CRLF2", "setting": "[6]", "result": "selective toxicity"}]}
{"molecule": "CRLF2 Phe232Cys (F232C mutant of human CRLF2) (receptor, Expressed in BaF3 cells; also called CRLF2 F232C; CRLF2 711T>G) QGGAAEGVQIQIIYFNLETVQVTWNASKYSRTNLTFHYRFNGDEAYDQCTNYLLQEGHTSGCLLDAEQRDDILYFSIRNGTHPVFTASRWMVYYLKPSSPKHVRFSWHQDAVTVTCSDLSYGDLLYEVQYRSPFDTEWQSKQENTCNVTIEGLDAEKCYSFWVRVKAMEDVYGPDTYPSDWSEVTCWQRGEIRDACAETPTPPKPKLSKCILISSLAILLMVSLLLLSLWKLWRVKKFLIPSVPDPKSIFPGLFEIHQGNFQEWITDTQNVAHLHKMAGAEQESGPEEPLVVQLAKTEAESPRMLDPQTEEKEASGGSLQLPHQPLQGGDVVTIGGFTFVMNDRSYVAL", "values": [{"measurement": "binding result", "setting": "[9]", "result": "binds"}]}
{"molecule": "wild-type human cytokine receptor-like factor 2 (CRLF2) (receptor, Expressed by retrovirus in BaF3 cells and detected by immunoblot of the cells; also called wt CRLF2; CRL2) QGGAAEGVQIQIIYFNLETVQVTWNASKYSRTNLTFHYRFNGDEAYDQCTNYLLQEGHTSGCLLDAEQRDDILYFSIRNGTHPVFTASRWMVYYLKPSSPKHVRFSWHQDAVTVTCSDLSYGDLLYEVQYRSPFDTEWQSKQENTCNVTIEGLDAEKCYSFWVRVKAMEDVYGPDTYPSDWSEVTCWQRGEIRDACAETPTPPKPKLSKFILISSLAILLMVSLLLLSLWKLWRVKKFLIPSVPDPKSIFPGLFEIHQGNFQEWITDTQNVAHLHKMAGAEQESGPEEPLVVQLAKTEAESPRMLDPQTEEKEASGGSLQLPHQPLQGGDVVTIGGFTFVMNDRSYVAL", "values": [{"measurement": "binding result", "setting": "[10]", "result": "no binding"}]}
